Among the test systems are CAKI-1; CCRF-CEM; HCC 2998; HT-29; KM-20L2; MOLT-4; NCI-H522; OVCAR-3; OVCAR-5; OVCAR-8; SF-539; SK-MEL-28; SK-OV-3; SNB-19; SNB-75; TK-10; HCT-116; BT-549; Hs-578T; SR.
What all share (experiment): NCI tumour cell line growth inhibition, 48 h

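48-hour exposure; five concentrations; linearly interpolated endpoints. GI50: concentration for 50% inhibition of growth.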 The source made the active and inactive calls. Rule as the data show it: active = GI50 up to about 1.1 µM and inactive = higher. Where only a bound is given, the exact number is not on record here.

As for `O=C(O)CCNS(=O)(=O)c1ccc(NC(=O)c2ccccc2)cc1`, the GI50 in the test with CAKI-1, in the test on CCRF-CEM, in the test on HCC 2998, with HT-29, with KM-20L2 and with MOLT-4 was > 100 µM (inactive) throughout. Also, the GI50 in the test on NCI-H522, in the test with OVCAR-3, in the test on OVCAR-5, in the test with OVCAR-8, with SF-539 and in the test on SK-MEL-28 was > 100 µM (inactive) throughout. Further, the GI50 with SK-OV-3, in the test on SNB-19, in the test on SNB-75 and in the test with TK-10 was > 100 µM (inactive) each time.

As to `Cc1ccc(/N=C2\N=C(N3CC(C)OC(C)C3)c3ccccc32)cc1` (centres undefined), the GI50 with CAKI-1 is 20.4 µM (inactive); in the test on CCRF-CEM, 23.3 µM (inactive); in the test on HCC 2998, 29.5 µM (inactive); in the test on HCT-116, 20.2 µM (inactive); in the test with HT-29, 23.7 µM (inactive); in the test with KM-20L2 it was 27.5 µM (inactive). Besides, the GI50 with MOLT-4 is 20.1 µM (inactive); in the test with NCI-H522, > 10 µM (inactive); in the test with OVCAR-3, 24.3 µM (inactive); with OVCAR-5, 40.6 µM (inactive); in the test with OVCAR-8, 33.4 µM (inactive); in the test on SF-539, 17.9 µM (inactive). In addition, the GI50 in the test with SK-MEL-28 was 28.4 µM (inactive); with SNB-19, 35 µM (inactive); with SNB-75 it was 27.9 µM (inactive); with TK-10, 34.2 µM (inactive).

As for `O=C1C2CC=CCC2C(=O)C12CCc1ccccc12` (centres undefined), the GI50 with CAKI-1, in the test with CCRF-CEM, in the test on HCC 2998, in the test with HT-29, in the test on KM-20L2 and in the test with OVCAR-3 was > 100 µM (inactive) each time. Further, the GI50 with OVCAR-8, in the test with SK-MEL-28, in the test on SK-OV-3, with SNB-75 and with TK-10 was > 100 µM (inactive) throughout.

As to `Brc1cc(C2OCCCO2)ccc1OCc1ccccc1`, the GI50 in the test with CAKI-1 is 54 µM (inactive); in the test on CCRF-CEM, 41.2 µM (inactive); in the test with HCC 2998, 30.3 µM (inactive); with HT-29, 17.5 µM (inactive); in the test on KM-20L2, > 10 µM (inactive); with MOLT-4 it was 24.9 µM (inactive). Besides, the GI50 in the test on NCI-H522 is 26.9 µM (inactive); with OVCAR-3 it was 74.1 µM (inactive); in the test on OVCAR-5, 29.6 µM (inactive); in the test with OVCAR-8, 57.3 µM (inactive); in the test with SF-539, 64.3 µM (inactive); in the test on SK-MEL-28, > 100 µM (inactive). In addition, the GI50 with SK-OV-3 was > 100 µM (inactive); in the test on SNB-19, 88.7 µM (inactive); in the test on SNB-75 it was 45.3 µM (inactive); in the test on TK-10, 40.7 µM (inactive).

`CN(C)c1ccc(/C=C(/C(=O)O)c2csc(-c3nc(/C(=C\c4ccc(N(C)C)cc4)C(=O)O)cs3)n2)cc1`: the GI50 was > 100 µM (inactive) in the test on CAKI-1; 16.7 µM (inactive) with CCRF-CEM; > 100 µM (inactive) with HCC 2998; > 100 µM (inactive) in the test with HCT-116; 44.7 µM (inactive) with HT-29; > 100 µM (inactive) in the test on KM-20L2. Besides, the GI50 in the test on MOLT-4 was 58.6 µM (inactive); in the test on OVCAR-3 it was > 100 µM (inactive); in the test with OVCAR-5, > 100 µM (inactive); in the test with OVCAR-8, > 100 µM (inactive); with SF-539 it was > 100 µM (inactive); in the test with SK-MEL-28, > 100 µM (inactive). Moreover, the GI50 in the test on SK-OV-3, in the test with SNB-75 and in the test with TK-10 was > 100 µM (inactive) in each case.

With `CCOC(=O)NC(=O)c1cn(C(CC)COC(=O)NCCCCCCNC(=O)OCC(CC)n2cc(C(=O)NC(=O)OCC)c(=O)[nH]c2=O)c(=O)[nH]c1=O` (centres undefined), the GI50 in the test on CAKI-1, in the test on CCRF-CEM, in the test on HCC 2998, in the test with HCT-116, in the test on HT-29 and in the test with KM-20L2 was > 100 µM (inactive) throughout. The GI50 with MOLT-4, in the test with NCI-H522, with OVCAR-3, with OVCAR-8, in the test on SK-MEL-28 and with SK-OV-3 was > 100 µM (inactive) throughout. The GI50 in the test with SNB-19 and in the test with SNB-75 was > 100 µM (inactive) each time.

Take `COC(=O)/C(=N\NC(N)=S)C(C#N)c1ccccc1` (centres undefined): the GI50 in the test with CCRF-CEM, in the test on HCC 2998, with HCT-116, with HT-29, in the test on KM-20L2 and with MOLT-4 was > 100 µM (inactive) in each case. For the same molecule, the GI50 in the test with NCI-H522, in the test on OVCAR-3, with OVCAR-5, with OVCAR-8, with SF-539 and in the test on SK-MEL-28 was > 100 µM (inactive) each time. Besides, the GI50 in the test with SK-OV-3 is > 100 µM (inactive); in the test with SNB-19, > 100 µM (inactive); with SNB-75, 19 µM (inactive); in the test on TK-10 it was > 100 µM (inactive).

Consider `O=C1CSC2(CC(/C=C/c3cccc(Br)c3)=NN2c2cccc(S(=O)(=O)O)c2)N1c1nc2ccccc2s1` (centres undefined), for which the GI50 in the test on BT-549 was > 100 µM (inactive); in the test on CAKI-1, > 100 µM (inactive); in the test with CCRF-CEM, 20 µM (inactive); in the test on HCC 2998, > 100 µM (inactive); with HCT-116 it was > 100 µM (inactive); in the test with HT-29 it was > 100 µM (inactive). The GI50 was > 100 µM (inactive) in the test with Hs-578T; > 100 µM (inactive) with MOLT-4; 58.5 µM (inactive) in the test on NCI-H522; > 100 µM (inactive) in the test with OVCAR-3; > 100 µM (inactive) with OVCAR-5; > 79.8 µM (inactive) in the test with OVCAR-8. For the same molecule, the GI50 in the test with SF-539 was > 100 µM (inactive); with SK-MEL-28, > 100 µM (inactive); in the test with SK-OV-3, > 100 µM (inactive); in the test on SNB-19 it was > 100 µM (inactive); in the test on SNB-75, > 100 µM (inactive); in the test on SR it was 41.5 µM (inactive). Moreover, the GI50 in the test with TK-10 is > 100 µM (inactive).

For `Cc1csc(NC23CC4CC(CC(C4)C2)C3)[n+]1C(P(=O)([O-])O)P(=O)(O)O` (centres undefined), the GI50 in the test on BT-549, with CAKI-1, with CCRF-CEM, in the test with HCC 2998, in the test with HCT-116 and with HT-29 was > 100 µM (inactive) in each case. Also, the GI50 in the test on Hs-578T, in the test on MOLT-4, in the test with NCI-H522, with OVCAR-3, with OVCAR-5 and with OVCAR-8 was > 100 µM (inactive) each time. The GI50 in the test on SF-539, in the test on SK-MEL-28, with SK-OV-3, in the test with SNB-19, in the test on SNB-75 and with SR was > 100 µM (inactive) throughout. In the test on TK-10, the GI50 was > 100 µM (inactive).

Turning to `CCCCCCCCCCCCSC(=S)c1c(C)[nH]n(-c2ccccc2)c1=O`, the GI50 in the test on CAKI-1 was 19.1 µM (inactive); in the test with CCRF-CEM, 2.9 µM (inactive); in the test on HCC 2998, 5.36 µM (inactive); in the test on HT-29, 14.3 µM (inactive); in the test with KM-20L2 it was 10.2 µM (inactive); with MOLT-4 it was 6.61 µM (inactive). Also, the GI50 is 13.3 µM (inactive) in the test on OVCAR-3; 16.2 µM (inactive) with OVCAR-5; 14 µM (inactive) in the test with OVCAR-8; 14.3 µM (inactive) with SF-539; 7.36 µM (inactive) with SK-MEL-28; 16.3 µM (inactive) in the test with SK-OV-3. Moreover, the GI50 in the test with SNB-19 was 12.4 µM (inactive); with TK-10, 22.2 µM (inactive).

As for `O=C(/C=C/c1cccc2ccccc12)c1ccccc1`, the GI50 in the test on BT-549 was 13.2 µM (inactive); in the test with CAKI-1 it was 12.2 µM (inactive); with CCRF-CEM, 3.28 µM (inactive); with HCC 2998, 15.7 µM (inactive); with HCT-116, 10.3 µM (inactive); with HT-29, 4.57 µM (inactive). In addition, the GI50 in the test on Hs-578T is 26.3 µM (inactive); in the test with MOLT-4, 3.94 µM (inactive); in the test on NCI-H522, 10.1 µM (inactive); in the test with OVCAR-3, 9.16 µM (inactive); with OVCAR-5 it was 13.8 µM (inactive); in the test with OVCAR-8, 8.45 µM (inactive). Besides, the GI50 is 3.57 µM (inactive) in the test with SF-539; 17.7 µM (inactive) with SK-MEL-28; 16.3 µM (inactive) with SK-OV-3; 14.5 µM (inactive) in the test on SNB-19; 15.9 µM (inactive) in the test on SNB-75; 2.9 µM (inactive) with SR. Moreover, the GI50 with TK-10 is 6.35 µM (inactive).

For `COc1ccc(/C=C/C(=O)c2cccc(C(=O)/C=C/c3ccc(OC)c(OC)c3)n2)cc1OC`, the GI50 in the test on BT-549 is 6.15 µM (inactive); in the test on CAKI-1 it was > 57.9 µM (inactive); with CCRF-CEM it was 1.05 µM (active); with HCC 2998, > 100 µM (inactive); in the test with HCT-116, 7.96 µM (inactive); with HT-29, 7.87 µM (inactive). The GI50 in the test with Hs-578T was > 48.2 µM (inactive); in the test with MOLT-4, 2.82 µM (inactive); in the test with NCI-H522, 4.75 µM (inactive); in the test with OVCAR-3, > 54.8 µM (inactive); in the test on OVCAR-5 it was 29.6 µM (inactive); with OVCAR-8 it was 3.27 µM (inactive). Further, the GI50 in the test on SF-539 was 14.4 µM (inactive); in the test with SK-MEL-28 it was 15.8 µM (inactive); in the test with SK-OV-3, > 100 µM (inactive); in the test on SNB-19 it was 27 µM (inactive); with SNB-75 it was > 100 µM (inactive); with SR, 2.91 µM (inactive). The GI50 with TK-10 is > 100 µM (inactive).
